# According to patent US20130296236A1, “TREATMENT PROTOCOL OF DIABETES TYPE 2” (priority 2011, published 2013):
# Tested on: patients with type 2 diabetes
# Type: in vivo, human
# Conditions: reduction from […]; insulin glargine on top of metformin +/- TZDs, before randomized treatment
# Description: The study consisted of 3 periods: (1) an up to 14-week screening period, which included an up to 2-week screening phase and a 12-week run-in phase with the introduction and titration of insulin glargine on top of metformin+/−TZDs; patients started insulin glargine once daily and titrated the insulin dose by a treat-to-target regimen to reach a glycemic target of FPG 100-80 mg/dl (5.6-4.4 mmol/L) during run-in.
# Of note, per protocol, insulin dose adjustment to maintain fasting plasma glucose at target was allowed in both treatment groups throughout the study.
substance,measurement,value
Gly(A21)-Arg(B31)-Arg(B32)-human insulin [insulin glargine],"Mean HbA1c after the 12-week run-in phase, lixisenatide group",7.56%
same,"Mean HbA1c after the 12-week run-in phase, placebo group",7.60%
